Measured values reported in patent US7834042B2, “Angiotensin II receptor antagonists” (Merck Sharp & Dohme Corp., priority 2006, dated 2010).

Test: Reactive nitrogen species (RNS) after oral dosing of fasted rats, diaminonapthalene derivitization (DAN) assay
Format: in vivo, Sprague-Dawley (SD) rats
Settings: fasted SD rats, 40 mpk PO
Description: The dinitrate compounds of the invention provide enhanced NO release over mononitrate analogs. While mononitrate compounds orally dosed to rats result in reactive nitrite species circulating in plasma with maximal concentration in the 0.5-2.8 μM range, similar dosing of compounds of the present invention result in an unexpectedly large increase in circulating nitrite concentrations. A consideration of stoichiometry leads to an expectation of a doubling of nitrite levels. Compounds of the invention, however, provide a nitrite level increase more than two fold.
Biochemical evidence for the generation of NO in vivo in response to test compound administration was obtained from studies in Sprague-Dawley (SD) rats. Administration of test compound to fasted SD rats (40 mpk, PO) results in the appearance of reactive nitrogen species (RNS), assessed using the diaminonapthalene derivitization (DAN) assay. Compounds 1-2 as numbered and identified in Table 1 below were tested.

| Structure (SMILES) | RNS levels (Time 0 h, in µM) | RNS levels (Time 1 h, in µM) | RNS levels (Time 3 h, in µM) | RNS levels (Time 6 h, in µM) | RNS levels (Time 24 h, in µM) | RNS levels (result in words) (Compounds 1-2 compared) | RNS levels (Time 0 h) | RNS levels (Time 1 h) | RNS levels (Time 3 h) | RNS levels (Time 6 h) |
| --- | --- | --- | --- | --- | --- | --- | --- | --- | --- | --- |
| CCCCc1nc(Cl)c(COC(=O)CCCO[N+](=O)[O-])n1Cc1ccc(-c2ccccc2-c2nnn[nH]2)cc1 [Compound 1, reference compound] | 0.7 ± 0.12 | 1.1 ± 0.22 | 1.1 ± 0.26 | 1.1 ± 0.34 | 1.7 ± 0.15 |  |  |  |  |  |
| CCCCc1nc(Cl)c(COC(=O)CCC[C@@H](CO[N+](=O)[O-])O[N+](=O)[O-])n1Cc1ccc(-c2ccccc2-c2nnn[nH]2)cc1 [Compound 2] |  |  |  |  | 0.5 ± 0.26 | improved RNS levels | 0.6 ± 0.11 | 9.8 ± 3.8 | 3.1 ± 2.48 | 2.1 ± 1.65 |
